In patent US20120302636A1, “METHOD OF TREATING A DISORDER ASSOCIATED WITH MTP” (priority 2009, published 2012):
“Also recorded” adds a separate entry of the source.

Legend:
[1] = Example 9: caloric/food intake and appetite; assay type: in vivo, human; details: 3.5 mg BID, Day 10/11
Experimental: The study enrolled 16 obese male subjects (18-65 years of age (inclusive), with a body mass index (BMI) >30.0 kg/m^2 and <40.0 kg/m^2) who participated in two treatment periods. During Period 1, 8 subjects were randomized to receive 3.5 mg of the compound of formula (I), and 8 subjects were randomized to receive placebo. The compound of formula (I) or placebo was administered twice daily (BID), 30 minutes after the start of breakfast and dinner, for 10 days. All subjects were discharged from the clinic at the end of Period 1 for a 9±2 day discharge period. Subjects then returned for treatment during Period 2, in which (i) the group previously receiving the compound of formula (I) now received placebo, and (ii) the group previously receiving placebo now received the compound of formula (I), in accordance with the protocol described above.
A secondary objective of this study was to examine the effects on caloric/food intake and appetite. Therefore, other secondary PD endpoints in this study included caloric intake and meal weight consumed on Day 10 of each period, as well as visual analog scale (VAS) assessments of hunger, prospective consumption, and fullness on Day 10/11 of each period. VAS assessments of thirst and nausea on Day 10/11 of each period were part of the exploratory analysis.

[2] = Example 1: repeated oral dose study of capsules, safety
Experimental: The subjects were divided into two dosing groups, and within each dosing group, the subjects were divided as follows: 6 subjects received the compound of formula (1) and 3 subjects received placebo. […] Subjects were in a fed condition prior to administration of each capsule.
Each active capsule contained a filling solution and a gelatin solution. The filling solution comprised the compound of formula (I) (5 mg), propylene glycol esters of fatty acids, and dehydrated ethanol. The gelatin solution comprised purified water, gelatin, and anhydrized liquid sorbitol. The filling solution and gelatin solution were prepared individually and combined to form a soft capsule. The placebo capsules were prepared in a similar manner except that the filling solution contained only propylene glycol esters of fatty acids and dehydrated ethanol.

[3] = Example 6: ascending dose study in healthy males and HTG patients, safety; assay type: in vivo
Text: Originally, the study was planned as 4 sequential cohorts of healthy male Caucasian subjects (Cohorts 1 to 4) followed by a cohort of male Caucasian patients with elevated triglycerides (HTG patients, Cohort 5). An additional cohort of healthy male Caucasian subjects (Cohort 4.1) was enrolled into the study (6 cohorts in total). The cohorts were as follows: Cohorts 1 to 4.1 had healthy Caucasian males, aged 18-45 years with a body weight of 60-100 kg and body mass index (BMI) between 19-28 kg/m^2 at screening and fasting triglycerides less than 1.69 mmol/L (less than 150 mg/dL) at the screening visit and Day-3. Cohort 5 had Caucasian males, aged 18-50 years with a body weight of 60-115 kg and BMI less than 35 kg/m^2 at screening and with elevated fasting triglycerides (TG≧1.69 mmol/L and <5.62 mmol/L; ≧150 mg/dL and <500 mg/dL) at the screening visit and Day-3.
The planned treatment for Cohorts 1 to 4 was twice daily administration of 5 mg, 10 mg or 15 mg the compound of formula (I)/placebo, or once daily administration of 30 mg the compound of formula (1)/placebo. […] As only the compound of formula (I) 5 mg capsules were supplied for this study, doses were administered once daily to determine the maximum tolerated dose, and the planned doses for each subsequent cohort were amended based on the safety and tolerability data obtained from the preceding cohort. The dose level and dosing schedule planned for the patients in Cohort 5 was determined by the maximum tolerated dose and dosing schedule as reported from the planned Cohorts 1 to 4.1.
Twelve healthy male Caucasian subjects were enrolled in each of Cohorts 1 to 4.1; dose cohorts were randomized in a ratio 9:3 to receive the compound of formula (I) or placebo, respectively, at the dose level associated with that cohort. Twelve male Caucasian patients with elevated triglycerides were randomized in a ratio of 8:4 to receive the compound of formula (I) or placebo, respectively, at the maximum tolerated dose level and dosing schedule.
This study was conducted to investigate the safety and tolerability of the compound of formula (I) and to determine the pharmacokinetic and pharmacodynamic profiles of the compound of formula (I) administered, either once or twice a day, for 14 days to healthy non-fasting male Caucasian subjects and male Caucasian HTG patients. The planned treatment for Cohorts 1 to 4 was twice daily administration of 5 mg, 10 mg or 15 mg the compound of formula (I)/placebo, or once daily administration of 30 mg the compound of formula (I)/placebo. […] Consequently, doses were administered once daily to healthy volunteers, and the planned doses for each subsequent cohort were amended based on the safety and tolerability data obtained from the preceding cohort.

[4] = Example 8: 12-week study in obese subjects, efficacy; details: for mean change from baseline to EOT in body weight: 12 weeks
Text: This example involved a clinical study of the compound of formula (I), which was a randomized, double-blind, placebo-controlled, parallel group study to evaluate the efficacy of the compound of formula (I) administered twice daily for twelve weeks in obese subjects.
The study had 180 participants. The 180 subjects comprised 59 males and 121 females, 18 to 65 years old, with BMI≧30 kg/m^2 to <40 kg/m^2. The subjects were separated into four arms of 45 subjects, including one arm as placebo. Each test subject received a tablet taken orally over a period of 12 weeks after breakfast and dinner (BID) (specifically, within 180 minutes of the commencement of eating) of 1 mg, 2.5 mg, or 3.5 mg, using one or multiples of tablets of 1 mg and 2.5 mg of the compound of formula (I) to achieve the total dose. Of the total entrants, 40 entrants completed the 1 mg regimen, 42 entrants completed the 2.5 mg regimen, 41 entrants completed the 3.5 mg regimen, and 42 entrants completed the placebo regimen.
This study was designed to investigate the weight loss effect of the compound of formula (I) administered BID for 12 weeks to obese subjects. The effect of the compound of formula (I) on ancillary efficacy measures (e.g., waist circumference, waist-hip ratio, percent body fat, serum lipid parameters, and markers related to glycemic control, obesity, and inflammation) was also evaluated, as was safety. The primary efficacy variable was body weight change from baseline after 12 weeks of treatment.

[5] = system: LDL-C levels; test: Example 4: 8-week study in hyperlipidemia, efficacy; assay type: in vivo, human
Experimental: (§1) One hundred five Japanese patients with hyperlipidemia (LDL-C between 140 and 220 mg/dL; TG≦400 mg/dL) participated in the study. […] For the efficacy analysis, 95 subjects were observed (0.5 mg BID: 25 subjects, 1 mg BID: 24 subjects, 2 mg BID: 22 subjects, 4 mg BID: 24 subjects).
The objective was to administer the compound of formula (I) orally to hyperlipidemic patients at a dose of 0.5, 1, 2, or 4 mg as capsules twice daily after the morning (e.g., breakfast) and evening meal (e.g., dinner) for eight weeks in order to explore a dose range in which the compound of formula (I) reduced LDL-C levels. In addition, the effects on lipid metabolism, safety, and pharmacokinetics of the compound of formula (I) were evaluated.

[6] = Example 4: pharmacokinetics; assay type: in vivo, human
Experimental: as §1

## CCOC(=O)C(COC(=O)Cc1ccc(NC(=O)c2ccccc2-c2ccc(C(F)(F)F)cc2)c(C(=O)N(C)C)c1)(C(=O)OCC)c1ccccc1 [compound of formula (I), diethyl 2-((2-(3-(dimethylcarbamoyl)-4-(4′-(trifiuoromethyl)biphenyl-2-ylcarboxamido)phenyl)acetoxy)methyl)-2-phenyl malonate]
[1]
  caloric intake, meal weight consumed, VAS of hunger, prospective consumption, fullness, thirst, nausea: no statistically significant treatment differences
[2]; 5 mg group
  number of adverse events: 12
  subjects with adverse events (incidence): 83%
[2]; 15 mg BID group
  vitamins A and E: Decreased
[2]; 15 mg group
  number of adverse events: 32
  subjects with adverse events (incidence): 100%
[2]; 15 mg group, of 6 subjects
  subjects with diarrhea: 6 subjects
[2]; 5 or 15 mg BID after meals, 14 days, capsules
  death or serious adverse events: neither death nor serious adverse events were reported
[2]; active group
  incidence of ALT increased: 17%
  incidence of abdominal discomfort: 25%
  incidence of anorexia: 42%
  incidence of diarrhea: 67%
  incidence of gastrointestinal disorders (SOC): 75%
  incidence of investigations (SOC): 33%
  incidence of metabolism and nutrition disorders (SOC): 42%
  incidence of moderate abdominal discomfort: 8%
  incidence of moderate diarrhea: 58%
  incidence of moderate feeling queasy: 8%
  incidence of moderate stomach discomfort: 8%
  incidence of stomach discomfort: 58%
[2]; active group (5 and 15 mg BID), 12 subjects
  subjects with adverse events (incidence): 92%
[2]; active group, 12 subjects
  number of adverse events: 44
[2]; long-term treatment in outpatients
  tolerable dosage: 5 mg BID
[2]; repeated BID administration
  doses at which diarrhea occurred: ≥ 5 mg
[3]; 5 mg BID, Cohort 1
  subjects withdrawn due to adverse events: 5 subjects
[3]; 5 mg BID, HTG patients, Cohort 5
  tolerability: reasonably well tolerated
[3]; 5 mg BID, healthy subjects, Cohort 1
  tolerability: poorly tolerated; also recorded: not well tolerated
[3]; HTG patients receiving compound, Cohort 5
  subjects reporting treatment-emergent adverse events: 88 % of treatment group
[3]; any cohort
  safety analyses (liver MRIs, tryptase, fat soluble vitamins, fecal fat): no clinically relevant findings
[3]; healthy subjects receiving compound
  subjects reporting treatment-emergent adverse events: 76 % of treatment group
[3]; healthy subjects, Cohorts 2 (5 mg QD), 3 (10 mg QD), 4 (15 mg QD), 4.1 (20 mg QD)
  tolerability: reasonably well-tolerated
[3]; human, in vivo
  fatty liver (liver MRI): without the presence of fatty liver
  renal function tests: did not suggest drug-related nephrotoxicity or hyperglycaemia
[4]; 1 mg BID
  mean change from baseline to EOT in body weight: -0.70 kg
[4]; 2.5 mg BID
  mean change from baseline to EOT in body weight: -1.74 kg
[4]; 3.5 mg BID
  mean change from baseline to EOT in body weight: -2.19 kg
[4]; after 12 weeks
  waist circumference, waist-hip ratio, percent body fat vs placebo: No statistically significant differences
[4]; after 12 weeks, 3 compound groups
  mean decreases from baseline LDL-C: −5.90 to −8.27 mg/dL
[4]; all treatment groups
  triglyceride levels: increased from baseline
[4]; human, in vivo
  TC and ApoB: improvements (reductions)
  weight loss by perilipin gene mutation: no differences
[5]; 0.5 mg BID
  mean percent change in LDL-C levels at Week 8 from baseline: −4.3%
[5]; 1 mg BID
  mean percent change in LDL-C levels at Week 8 from baseline: −4.5%
[5]; 2 mg BID
  mean percent change in LDL-C levels at Week 8 from baseline: −12.2%
[5]; 4 mg BID
  mean percent change in LDL-C levels at Week 8 from baseline: −12.3%
[5]; 2 and 4 mg BID
  ApoB and ApoE levels: decreased
[5]; 2 and 4 mg BID, throughout treatment
  TC levels: decreased
[5]; in vivo
  insulin, hemoglobin Alc, adiponectin, or leptin level: did not affect
[5]; treatment period
  ApoB48, ApoA-I, ApoA-II, ApoC-II, and ApoC-III levels: no significant changes
  time course of TG or HDL-C levels: no definite trend or dose correlation
[6]; 0.5 and 1 mg BID, not quantifiable
  plasma compound of formula (I) concentrations: < 0.3 ng/mL
[6]; 2 and 4 mg BID
  plasma compound of formula (I) concentrations: not quantifiable, except in a few sporadic cases
